Experimental data published in PubChem BioAssay (NCI).
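Following 48 hours of exposure in 96-well plates, responses at five concentrations were used to interpolate endpoints linearly. The concentration for 50% growth inhibition is given as GI50. TGI denotes the concentration required for complete inhibition of growth.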

What was measured:
Assay in all cases: growth of human tumour cells (NCI), 48 h
SK-MEL-28 melanoma = test system: SK-MEL-28 melanoma
SNB-19 CNS = test system: SNB-19 CNS
M14 melanoma = test system: M14 melanoma
TK-10 renal = test system: TK-10 renal
NCI/ADR-RES ovarian = test system: NCI/ADR-RES ovarian
NCI-H23 lung = test system: NCI-H23 lung
SNB-75 CNS = test system: SNB-75 CNS
RPMI-8226 leukemia = test system: RPMI-8226 leukemia
OVCAR-8 ovarian = test system: OVCAR-8 ovarian
CCRF-CEM leukemia = test system: CCRF-CEM leukemia

| Structure (SMILES) | GI50 (SK-MEL-28 melanoma) [µM] | TGI (SK-MEL-28 melanoma) [µM] | TGI (SNB-19 CNS) [µM] | GI50 (M14 melanoma) [µM] | TGI (M14 melanoma) [µM] | GI50 (TK-10 renal) [µM] | TGI (TK-10 renal) [µM] | TGI (NCI/ADR-RES ovarian) [µM] | TGI (NCI-H23 lung) [µM] | TGI (SNB-75 CNS) [µM] | TGI (RPMI-8226 leukemia) [µM] | TGI (OVCAR-8 ovarian) [µM] | TGI (CCRF-CEM leukemia) [µM] | GI50 (SNB-19 CNS) [µM] | GI50 (SNB-75 CNS) [µM] | GI50 (RPMI-8226 leukemia) [µM] | GI50 (NCI/ADR-RES ovarian) [µM] | GI50 (OVCAR-8 ovarian) [µM] | GI50 (NCI-H23 lung) [µM] | GI50 (CCRF-CEM leukemia) [µM] |
| --- | --- | --- | --- | --- | --- | --- | --- | --- | --- | --- | --- | --- | --- | --- | --- | --- | --- | --- | --- | --- |
| Nc1ccn(C2OC(CO[P+](=O)OC3C(CO[P+](=O)OC4C(CO[P+](=O)OC5C(CO[P+](=O)OC6C(CO[P+](=O)OC7C(CO[P+](=O)OC8C(CO[P+](=O)OC9C(CO[P+](=O)OC%10C(CO[P+](=O)OC%11C(CO)OC(n%12ccc(N)nc%12=O)C%11(F)F)OC(n%11ccc(N)nc%11=O)C%10(F)F)OC(n%10ccc(N)nc%10=O)C9(F)F)OC(n9ccc(N)nc9=O)C8(F)F)OC(n8ccc(N)nc8=O)C7(F)F)OC(n7ccc(N)nc7=O)C6(F)F)OC(n6ccc(N)nc6=O)C5(F)F)OC(n5ccc(N)nc5=O)C4(F)F)OC(n4ccc(N)nc4=O)C3(F)F)C(O)C2(F)F)c(=O)n1 (configuration not stated) | > 100 | > 100 | > 100 | 0.0397 | 0.27 | > 100 | > 100 | > 100 |  |  |  |  |  |  |  |  |  |  |  |  |
| CCOC(=O)NC(=O)c1cn(CCCCCCCCCCC(=O)N2CCN(CCn3cc(C(=O)NC(=O)OCC)c(=O)[nH]c3=O)CC2)c(=O)[nH]c1=O |  | > 100 | > 100 |  | > 100 |  | > 100 |  | > 100 | > 100 | > 100 | > 100 | > 100 |  |  |  |  |  |  |  |
| CCCCC(SC(=S)N(CC)CC)C(=O)Nc1nc(CC(=O)OCC)cs1 (configuration not stated) | 47.3 | > 100 | > 100 | 33.7 | > 100 | 82.9 | > 100 | > 100 |  | > 100 | 85.2 | > 100 |  | 56.9 | 67 | 22 | 42.9 | 41.4 |  |  |
| CCC[CH2][Sn]([CH2]CCC)([O]C(=O)c1cc(OC)c(OC)c(OC)c1)[O]C(=O)c1cc(OC)c(OC)c(OC)c1 | 0.633 | 1.99 | 1.54 | 1.42 | 2.83 | 1.58 | 3.02 |  | 1.56 | 1.29 | 4.5 | 3.37 | 0.862 | 0.464 | 0.169 | 0.445 |  | 1.5 | 0.437 | 0.25 |
| CCOC(=O)/C(=C/c1cc(OC)ccc1OC)CC(=O)O |  | > 100 | > 100 |  | > 100 |  | > 100 |  | > 100 | > 100 | > 31.6 | > 100 | > 31.6 |  |  |  |  |  |  |  |
| OCC1OC(n2ccc3cnccc32)CC1O (configuration not stated) |  | > 100 | > 100 |  | > 100 |  | > 100 |  | > 100 | > 100 | > 100 | > 100 | > 100 |  |  |  |  |  |  |  |
| O=[N+]([O-])c1ccc(Oc2cccnc2)c([N+](=O)[O-])c1 | 9.49 | 23.9 | > 100 | 2.74 | 8.61 |  |  |  | 18.7 | 38.4 | 62.6 | > 100 | 24.8 | 24.3 | 2.76 | 4.07 |  | 3.52 | 4.28 | 3.22 |
| CCCCCCCCC(=O)CCCCCCCCC(=O)O |  | > 100 | > 100 |  | 82.8 |  | > 100 |  | 85.8 | > 100 | 51.2 | 32.4 | > 100 |  |  |  |  |  |  |  |
| C[CH2][Sn]1([CH2]C)[O]C2C(O)OC(CO)C(O)C2[O]1 (configuration not stated) | 23.3 | 80.4 | > 100 | 37.3 | > 100 | 18.4 | 36.5 | > 100 | 93 | > 100 | 23.8 | > 100 |  | 50.5 | > 100 | 7.16 | > 100 | > 100 | 24.2 |  |
| COC(=O)C1C(=O)O[C@@H](c2ccc(OC)cc2)C1C(=O)OC (some centres not stated) |  | > 100 | > 100 |  | > 100 |  | > 100 |  | > 100 | > 100 | > 100 | > 100 | > 100 |  |  |  |  |  |  |  |
| C=CCOC1=C2CC[C@H](O)[C@@]2(C)CCC1=O |  | > 100 | > 100 |  | > 100 |  | > 100 |  |  | > 100 | > 100 | > 100 | > 100 |  |  |  |  |  |  |  |
| CC1C(=O)CCC1C(Sc1ccccc1)(Sc1ccccc1)Sc1ccccc1 (configuration not stated) |  | > 100 | > 100 |  | > 100 |  | > 100 |  | > 100 | 64.6 | 40.6 | > 100 | 22.4 |  |  |  |  |  |  |  |
| COC(=O)C1C2CC3C(OC(=O)C31)C2I (configuration not stated) |  | > 10 | > 100 |  | > 100 |  | > 10 |  | > 100 | > 100 | > 100 | > 100 |  |  |  |  |  |  |  |  |
| O=S1Cc2ccccc2CS1 (configuration not stated) |  | 28.3 | > 100 |  | 28.3 |  | 55.6 |  | 28.3 | 61.5 | 38.2 | 28.7 |  |  |  |  |  |  |  |  |
| O=C(Nc1cccc(-n2cc(-c3ccncc3)c(-c3cc(O)cc(Cl)c3)n2)c1)Nc1ccc(Cl)c(Cl)c1 | 2.14 | 5.55 | 19 | 1.44 | 3.28 |  |  | > 100 | 6.29 | 4.82 | 4.3 | 5.06 |  | 3.18 | 1.38 | 1.44 | 3.21 | 2.02 | 2.41 |  |
| S=C1CNC(=S)CN1 |  | > 100 | > 100 |  | > 100 |  | > 100 |  |  | > 100 | > 100 | > 100 | > 100 |  |  |  |  |  |  |  |
| Cc1ccc(NC(=O)C2C(=O)C(=O)N(c3ccc(C)cc3)C2=O)cc1 (configuration not stated) |  |  | > 100 |  | > 100 |  | > 100 |  | > 100 |  |  | > 100 | > 100 |  |  |  |  |  |  |  |
| c1ccc2c(c1)nnn1c3cnccc3nc21 |  | > 100 | > 100 |  | > 100 |  | 94.7 |  | 69.4 | > 100 | 58.8 | > 100 | 44.3 |  |  |  |  |  |  |  |
| COC(=O)C(=C\Sc1ccccc1)/C=C/C(=O)OC(C)(C)C |  | 26.2 | 15.3 |  | 21.2 |  | 30.8 |  | 33.1 | 28.5 | 8.48 | 31.2 | 5.35 |  |  |  |  |  |  |  |
| Oc1c(Cl)cc(C(c2cc(Cl)c(O)c(Cl)c2)C(c2cc(Cl)c(O)c(Cl)c2)c2cc(Cl)c(O)c(Cl)c2)cc1Cl | 5.27 | 54.3 | 17.3 | 4.25 | 18.8 | 7.05 | 21.5 | 38 | 16.3 | 7.87 | 12.4 | 22.3 |  | 3.51 | 3.08 | 3 | 10.7 | 4.11 | 3.68 |  |
| COc1ccc(S(=O)(=O)Nc2cc(/C=C\c3cc(OC)c(OC)c(OC)c3)cc(OC)c2OC)cc1OC | 3.27 | 61.3 | > 100 | 0.419 | > 100 | 10.3 | > 100 |  | > 100 | > 100 | > 100 | > 100 | > 100 | 1.11 | 0.404 | 0.567 |  | 4.08 | 3.31 | 0.349 |
| Clc1cccc(Cn2cc(Cc3cn(Cc4cccc(Cl)c4)c4ccccc34)c3ccccc32)c1 | > 100 | > 100 | > 100 | > 100 | > 100 | 92.6 | > 100 |  | > 100 | > 100 | > 100 | > 100 | > 100 | > 100 | > 100 | > 100 |  | > 100 | > 100 | > 100 |
| CCC1(O)C(=O)OCc2c1cc1n(c2=O)Cc2c-1nc1ccccc1c2OC (configuration not stated) |  | > 53.8 | > 29.2 |  | 0.445 |  | > 100 |  | 0.0749 | 0.129 | 0.511 | > 100 | < 0.01 |  |  |  |  |  |  |  |
| COC1OC(COCc2ccc(Cl)cc2)C(OCc2ccc(Cl)cc2)C1O (configuration not stated) |  | 31.4 | 32.4 |  | 31 |  | 67.4 |  | 31.9 | 32.8 | > 100 | 69.7 | 46.7 |  |  |  |  |  |  |  |
| CC12Oc3ccc4ccccc4c3C1c1c(ccc3ccccc13)O2 (configuration not stated) |  | > 100 | > 100 |  | > 100 |  | > 100 |  | > 100 | > 100 |  | > 100 | > 100 |  |  |  |  |  |  |  |
| O=C(Nc1cccnc1)c1cccs1 | 0.677 | > 100 | > 100 | 0.506 | > 100 | > 100 | > 100 | > 100 | > 100 | > 100 |  | > 100 |  | 9.56 | 4.77 |  | 43.8 | 8.94 | 4.84 |  |
| Cn1c(O)c(C=N)c(=O)n(C)c1=O |  | > 100 | > 100 |  | > 100 |  | > 100 |  | > 100 | > 100 | > 100 | > 100 | > 100 |  |  |  |  |  |  |  |
